ChEMBL document CHEMBL1131922, “Synthesis and biological evaluation of cryptophycin analogs with substitution at C-6 (fragment C region)” (Bioorg Med Chem Lett, 1999)

System: CCRF-CEM
Assay: In vitro cytotoxicity against human leukemia CCRF-CEM cell line
Type: functional, cell-based

| Compound | IC50 [nM] |
| --- | --- |
| COc1ccc(C[C@H]2NC(=O)/C=C/C[C@@H]([C@H](C)[C@@H](O)[C@@H](Cl)c3ccccc3)OC(=O)[C@H](CC(C)C)OC(=O)C3(CCCCC3)CNC2=O)cc1Cl | 110 |
| COc1ccc(C[C@H]2NC(=O)/C=C/C[C@@H]([C@H](C)[C@H]3O[C@@H]3c3ccccc3)OC(=O)[C@H](CC(C)C)OC(=O)C3(CC3)CNC2=O)cc1Cl | 0.16 |
| CCCC1(CCC)CNC(=O)[C@@H](Cc2ccc(OC)c(Cl)c2)NC(=O)/C=C/C[C@@H]([C@H](C)[C@@H](O)[C@@H](Cl)c2ccccc2)OC(=O)[C@H](CC(C)C)OC1=O | 8.7 |
| COc1ccc(C[C@H]2NC(=O)/C=C/C[C@@H]([C@H](C)[C@@H](O)[C@@H](Cl)c3ccccc3)OC(=O)[C@H](CC(C)C)NC(=O)C3(CC3)CNC2=O)cc1Cl | 0.01 |
| CCC1(CC)CNC(=O)[C@@H](Cc2ccc(OC)c(Cl)c2)NC(=O)/C=C/C[C@@H]([C@H](C)[C@H]2O[C@@H]2c2ccccc2)OC(=O)[C@H](CC(C)C)OC1=O | 1.1 |
| COc1ccc(C[C@H]2NC(=O)/C=C/C[C@@H]([C@H](C)[C@@H](O)[C@@H](Cl)c3ccccc3)OC(=O)[C@H](CC(C)C)OC(=O)C3(CC3)CNC2=O)cc1Cl | 0.014 |
| CCCC1(CCC)CNC(=O)[C@@H](Cc2ccc(OC)c(Cl)c2)NC(=O)/C=C/C[C@@H]([C@H](C)[C@H]2O[C@@H]2c2ccccc2)OC(=O)[C@H](CC(C)C)OC1=O | 8.5 |
| COc1ccc(C[C@H]2NC(=O)/C=C/C[C@@H]([C@H](C)[C@@H](O)[C@@H](Cl)c3ccccc3)OC(=O)[C@H](CC(C)C)OC(=O)C(C)(C)CNC2=O)cc1Cl | 0.05 |
| COc1ccc(C[C@H]2NC(=O)/C=C/C[C@@H]([C@H](C)[C@@H](O)[C@@H](Cl)c3ccccc3)OC(=O)[C@H](CC(C)C)NC(=O)C(C)(C)CNC2=O)cc1Cl | 0.016 |
| COc1ccc(C[C@H]2NC(=O)/C=C/C[C@@H]([C@H](C)[C@@H](O)[C@@H](Cl)c3ccccc3)OC(=O)[C@H](CC(C)C)OC(=O)C3(CCCC3)CNC2=O)cc1Cl | 0.4 |
| CCC1(CC)CNC(=O)[C@@H](Cc2ccc(OC)c(Cl)c2)NC(=O)/C=C/C[C@@H]([C@H](C)[C@@H](O)[C@@H](Cl)c2ccccc2)OC(=O)[C@H](CC(C)C)OC1=O | 1.6 |
| COc1ccc(C[C@H]2NC(=O)/C=C/C[C@@H]([C@H](C)[C@H]3O[C@@H]3c3ccccc3)OC(=O)[C@H](CC(C)C)OC(=O)C3(CCCCC3)CNC2=O)cc1Cl | 63 |
| COc1ccc(C[C@H]2NC(=O)/C=C/C[C@@H]([C@H](C)[C@H]3O[C@@H]3c3ccccc3)OC(=O)[C@H](CC(C)C)OC(=O)C3(CCCC3)CNC2=O)cc1Cl | 0.3 |
| COc1ccc(C[C@H]2NC(=O)/C=C/C[C@@H]([C@H](C)[C@H]3O[C@@H]3c3ccccc3)OC(=O)[C@H](CC(C)C)OC(=O)C(C)(C)CNC2=O)cc1Cl [CRYPTOPHYCIN 52] | 0.02 |
